Reference: patent US20260078103A1, “ISOQUINOLONES AS PI3K INHIBITORS” (OnKure, Inc., priority 2022, published 2026)
Where two headings read alike, the source gives them in different places.

Assays:
Assay type in all cases: cell-based
[1] = tested on: T47D cells expressing mutant PI3Ka (H1047R); assay: In vitro cell proliferation, T47D cells (CellTiter-Glo); conditions: inhibition of proliferation, read-out: Avg T-47D EC50
Summary of the method: (§1)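 EC50 values derive from a four-parameter logistic fit of luminescence-based (CellTiter-Glo) inhibition, referenced to 0.1% DMSO and 10 uM Alpelisib controls. Compound exposure lasted 72 h at 37 °C.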

[2] = tested on: SKBR3 cells express WT PI3Ka; assay: In vitro cell proliferation, SKBR3 cells (CellTiter-Glo); conditions: inhibition of proliferation
Summary of the method: as §1

[3] = tested on: phosphorylation of AKT (pAKT) in T47D cells expressing mutant PI3Ka (H1047R); assay: In vitro cell pAKT (Ser473) HTRF, T47D cells; conditions: cellular pAKT, T47D cells, mutant PI3Ka (H1047R), 6 hours, read-out: Avg T-47D IC50
Summary of the method: (§2)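 T47D cells (RPMI, 10% FBS, 0.2 units/mL insulin) or SKBR3 cells (McCoy's 5a, 10% FBS) were seeded onto 10-point compound dilutions and incubated 6 h at 37 °C. After lysis, pAKT was detected overnight by HTRF (Eu cryptate/d2). IC50 was fitted from % inhibition relative to 0.1% DMSO and 10 uM alpelisib controls.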

[4] = tested on: phosphorylation of AKT (pAKT) in SKBR3 cells express WT PI3Ka; assay: In vitro cell pAKT (Ser473) HTRF, SKBR3 cells; conditions: cellular pAKT
Summary of the method: as §2

SMILES	EC50 ([1]; Homo sapiens, T47D, 72 h)	EC50 ([2]; Homo sapiens, SK-BR-3, 72 h)	IC50 ([3]; Homo sapiens, T47D, 6 h)	IC50 ([4]; Homo sapiens, SK-BR-3, 6 h)	EC50 ([1]; 72 hours)	EC50 ([2]; 72 hours)	IC50 [3]	IC50 ([4]; 6 hours)
Cc1cc(C(C)Nc2ccc(Cl)nc2C(=O)O)c2cc(N3Cc4ccc(F)cc4C3)n(C)c(=O)c2c1 (stereo not shown) [Example 71]	500 to 2000 nM	> 15000 nM	1 to 500 nM	2000 to 15000 nM				
Cc1cc(C(C)Nc2ccccc2C(=O)O)c2cc(N3Cc4cncnc4C3)n(C)c(=O)c2c1 (stereo not shown) [Example 72]	2000 to 15000 nM	> 15000 nM	500 to 2000 nM	> 15000 nM				
Cc1cc([C@@H](C)Nc2ccccc2C(=O)O)c2cc(N3C[C@H]4CN(CC(F)(F)F)C[C@H]4C3)n(C)c(=O)c2c1 [Example 73]	500 to 2000 nM	> 15000 nM	1 to 500 nM	> 15000 nM				
Cc1ccc(-c2cc3c(C(C)Nc4ccccc4C(=O)O)cc(C)cc3c(=O)n2C)nc1 (stereo not shown) [Example 74]	2000 to 15000 nM	> 15000 nM	500 to 2000 nM	> 15000 nM				
Cc1cc(C(C)Nc2ccccc2C(=O)O)c2cc(-c3cc4ccc(F)cc4[nH]3)n(C)c(=O)c2c1 (stereo not shown) [Example 75]	500 to 2000 nM	> 15000 nM	1 to 500 nM	> 15000 nM				
Cc1cc(C(C)Nc2ccccc2C(=O)O)c2cc(N3Cc4cc(F)cc(F)c4C3)n(C)c(=O)c2c1 (stereo not shown) [Example 84]	500 to 2000 nM	> 15000 nM	1 to 500 nM	> 15000 nM				
Cc1cc(C(C)Nc2ccccc2C(=O)O)c2cc(N3CC4CCC(C4)C3)n(C)c(=O)c2c1 (stereo not shown) [Example 85]	1 to 500 nM	> 15000 nM	1 to 500 nM	2000 to 15000 nM				
Cc1cc(C(C)Nc2ccccc2C(=O)O)c2cc(N3CCc4ncncc4C3)n(C)c(=O)c2c1 (stereo not shown) [Example 86]	2000 to 15000 nM	> 15000 nM	500 to 2000 nM	> 15000 nM				
CC(=O)N1C[C@@H]2CN(c3cc4c(C(C)Nc5ccccc5C(=O)O)cc(C)cc4c(=O)n3C)C[C@H]2C1 (stereo partly shown) [Example 87]	2000 to 15000 nM	> 15000 nM	2000 to 15000 nM	> 15000 nM				
Cc1cc(C(C)Nc2ccc(Cl)nc2C(=O)O)c2cc(N3CCC(C)(C)CC3)n(C)c(=O)c2c1 (stereo not shown) [Example 88]	500 to 2000 nM	2000 to 15000 nM	500 to 2000 nM	> 15000 nM				
Cc1cc(C(C)Nc2ccccc2C(=O)O)c2cc(N3Cc4c(F)c(F)c(F)c(F)c4C3)n(C)c(=O)c2c1 (stereo not shown) [Example 89]	2000 to 15000 nM	> 15000 nM	500 to 2000 nM	> 15000 nM				
Cc1cc(C(C)Nc2ccccc2C(=O)O)c2cc(N3CCC4(CCN(CC(F)(F)F)CC4)CC3)n(C)c(=O)c2c1 (stereo not shown) [Example 91]					1 to 500 nM	2000 to 15000 nM	1 to 500 nM	> 15000 nM
Cc1cc(C(C)Nc2ccccc2C(=O)O)c2cc(N3CCC4(CCN(CC(F)(F)F)C4)CC3)n(C)c(=O)c2c1 (stereo not shown) [Example 94]	1 to 500 nM	2000 to 15000 nM	1 to 500 nM	2000 to 15000 nM				
COCCC(=O)N1CCN(c2cc3c(C(C)Nc4ccccc4C(=O)O)cc(C)cc3c(=O)n2C)CC1 (stereo not shown) [Example 95]	500 to 2000 nM	> 15000 nM	500 to 2000 nM	> 15000 nM				
Cc1cc([C@@H](C)Nc2ccccc2C(=O)O)c2cc(N3CC[C@@]4(CCCN(CC(F)(F)F)C4)C3)n(C)c(=O)c2c1 [Example 98]	500 to 2000 nM	> 15000 nM	1 to 500 nM	> 15000 nM				
Cc1cc([C@@H](C)Nc2ccccc2C(=O)O)c2cc(N3CC[C@]4(CCCN(CC(F)(F)F)C4)C3)n(C)c(=O)c2c1 [Example 99]	1 to 500 nM	2000 to 15000 nM	1 to 500 nM	> 15000 nM				
Cc1cc(C(C)Nc2ccccc2C(=O)O)c2cc(N3CC4CCCC(C4)C3)n(C)c(=O)c2c1 (stereo not shown) [Example 116]					500 to 2000 nM	> 15000 nM	500 to 2000 nM	> 15000 nM
Cc1cc([C@@H](C)Nc2ccc(Cl)nc2C(=O)O)c2cc(-c3ccc(C)nc3)n(C)c(=O)c2c1 [Example 130]	1 to 500 nM	2000 to 15000 nM	1 to 500 nM	2000 to 15000 nM				
Cc1cc(C(C)Nc2ccccc2C(=O)O)c2cc(N3CCN4CC(F)(F)C[C@@H]4C3)n(C)c(=O)c2c1 (stereo partly shown) [Example 140]	1 to 500 nM	> 15000 nM	1 to 500 nM	> 15000 nM				
COc1cccc(N2CCN(c3cc4c([C@@H](C)Nc5ccccc5C(=O)O)cc(C)cc4c(=O)n3C)CC2)c1 [Example 147]	1 to 500 nM	> 15000 nM	1 to 500 nM	2000 to 15000 nM				

SMILES	EC50 ([1]; Homo sapiens, T47D, 72 h)	EC50 ([2]; Homo sapiens, SK-BR-3, 72 h)	IC50 ([3]; Homo sapiens, T47D, 6 h)	IC50 ([4]; Homo sapiens, SK-BR-3, 6 h)	EC50 ([1]; 72 hours)	EC50 ([2]; 72 hours)	IC50 [3]	IC50 ([4]; 6 hours)
Cc1cc([C@@H](C)Nc2ccc(Cl)nc2C(=O)O)c2cc(N3CCN(C4COC4)CC3)n(C)c(=O)c2c1 [Example 148]	500 to 2000 nM	> 15000 nM	500 to 2000 nM	> 15000 nM				
Cc1cc([C@@H](C)Nc2ccccc2C(=O)O)c2cc(N3CC(c4ccccn4)C3)n(C)c(=O)c2c1 [Example 152]	500 to 2000 nM	> 15000 nM	1 to 500 nM	> 15000 nM				
Cc1cc([C@@H](C)Nc2ccccc2C(=O)O)c2cc(N3CCN(CC4OCCO4)CC3)n(C)c(=O)c2c1 [Example 157]	1 to 500 nM	> 15000 nM	1 to 500 nM	> 15000 nM				
CON1CCN(c2cc3c([C@@H](C)Nc4ccccc4C(=O)O)cc(C)cc3c(=O)n2C)CC1 [Example 158]	1 to 500 nM	> 15000 nM	1 to 500 nM	> 15000 nM				
Cc1cc(C(C)Nc2ccccc2C(=O)O)c2cc(C#Cc3cccc(C#N)c3)n(C)c(=O)c2c1 (stereo not shown) [Example 159]					2000 to 15000 nM	> 15000 nM	500 to 2000 nM	> 15000 nM
Cc1cc([C@@H](C)Nc2ccccc2C(=O)O)c2cc(N3CCN(c4cccc(Cl)c4)CC3)n(C)c(=O)c2c1 [Example 160]					1 to 500 nM	> 15000 nM	1 to 500 nM	> 15000 nM
Cc1cc([C@@H](C)Nc2ccccc2C(=O)O)c2cc(N3CCN(c4cccc(C#N)c4)CC3)n(C)c(=O)c2c1 [Example 161]					1 to 500 nM	2000 to 15000 nM	1 to 500 nM	2000 to 15000 nM
Cc1cc([C@@H](C)Nc2ccccc2C(=O)O)c2cc(N3CCN(CC(F)F)CC3)n(C)c(=O)c2c1 [Example 162]					1 to 500 nM	> 15000 nM	1 to 500 nM	2000 to 15000 nM
Cc1cc([C@@H](C)Nc2ccccc2C(=O)O)c2cc(N3CCC(C)(C#N)CC3)n(C)c(=O)c2c1 [Example 164]					1 to 500 nM	2000 to 15000 nM	1 to 500 nM	2000 to 15000 nM
Cc1cc([C@@H](C)Nc2ccccc2C(=O)O)c2cc(N3CC(C)(C#N)C3)n(C)c(=O)c2c1 [Example 165]					500 to 2000 nM	> 15000 nM	1 to 500 nM	> 15000 nM
Cc1cc(C(C)Nc2ccccc2C(=O)O)c2cc(N3CC4(CCN(CC(F)(F)F)C4)C3)n(C)c(=O)c2c1 (stereo not shown) [Example 171]					500 to 2000 nM	> 15000 nM	1 to 500 nM	> 15000 nM
Cc1cc(C(C)Nc2ccccc2C(=O)O)c2cc(N3CC4(CCN(CC(F)(F)F)CC4)C3)n(C)c(=O)c2c1 (stereo not shown) [Example 172]					1 to 500 nM	> 15000 nM	1 to 500 nM	> 15000 nM
Cc1cc([C@@H](C)Nc2ccccc2C(=O)O)c2cc(N3CCN(Cc4ccccn4)CC3)n(C)c(=O)c2c1 [Example 175]	1 to 500 nM	2000 to 15000 nM	1 to 500 nM	> 15000 nM				
Cc1cc([C@@H](C)Nc2ccccc2C(=O)O)c2cc(N3CCN(Cc4cccc(C)n4)CC3)n(C)c(=O)c2c1 [Example 176]	1 to 500 nM	2000 to 15000 nM	1 to 500 nM	> 15000 nM				
Cc1cc([C@@H](C)Nc2ccccc2C(=O)O)c2cc(N3CC(C)(c4ccccc4)C3)n(C)c(=O)c2c1 [Example 179]	1 to 500 nM	> 15000 nM	1 to 500 nM	> 15000 nM				
COC1CN(c2cc3c([C@@H](C)Nc4ccccc4C(=O)O)cc(C)cc3c(=O)n2C)C1 [Example 180]	1 to 500 nM	> 15000 nM	1 to 500 nM	> 15000 nM				
Cc1cc([C@@H](C)Nc2ccccc2C(=O)O)c2cc(N3CC4(CN(CC(F)(F)F)C4)C3)n(C)c(=O)c2c1 [Example 184]	500 to 2000 nM	> 15000 nM	1 to 500 nM	> 15000 nM				
Cc1cc([C@@H](C)Nc2ccccc2C(=O)O)c2cc(N3CCC4(CN(CC(F)(F)F)C4)C3)n(C)c(=O)c2c1 [Example 185]	1 to 500 nM	> 15000 nM	1 to 500 nM	2000 to 15000 nM				
Cc1cc([C@@H](C)Nc2ccccc2C(=O)O)c2cc(N3CCN(c4ccccn4)CC3)n(C)c(=O)c2c1 [Example 186]	1 to 500 nM	2000 to 15000 nM	1 to 500 nM	2000 to 15000 nM				
Cc1cc([C@@H](C)Nc2ccccc2C(=O)O)c2cc(N3CCN(c4ccnc(C)n4)CC3)n(C)c(=O)c2c1 [Example 187]	1 to 500 nM	2000 to 15000 nM	1 to 500 nM	> 15000 nM				
